Laboratory results published in patent US8791267B2, “Biaryl PDE4 inhibitors for treating inflammatory, cardiovascular and CNS disorders” (Decode Genetics EHF, priority 2007, dated 2014).
pIC50: −log10 of the molar value. Structures can show the parent of a compound that is named as a salt.

Legend:
[1] = molecular target: PDE4B (Homo sapiens, UniProt Q07343); assay: In-vitro assay for PDE4 enzymes, real-time enzyme-coupled spectrophotometric assay, PDE4B Activity (Table 10); format: biochemical; conditions: human PDE4B (hPDE4B), enzyme-coupled spectrophotometric assay; read-out: PDE4B Activity, hPDE4B
[2] = molecular target: PDE4 (Homo sapiens, UniProt Q08499); assay: In-vitro assay for PDE4 enzymes, real-time enzyme-coupled spectrophotometric assay (Table 9); format: biochemical; conditions: human PDE4D; activity class, Table 9; read-out: hPDE4D
Chain of PDE4 (Q08499 whole entry): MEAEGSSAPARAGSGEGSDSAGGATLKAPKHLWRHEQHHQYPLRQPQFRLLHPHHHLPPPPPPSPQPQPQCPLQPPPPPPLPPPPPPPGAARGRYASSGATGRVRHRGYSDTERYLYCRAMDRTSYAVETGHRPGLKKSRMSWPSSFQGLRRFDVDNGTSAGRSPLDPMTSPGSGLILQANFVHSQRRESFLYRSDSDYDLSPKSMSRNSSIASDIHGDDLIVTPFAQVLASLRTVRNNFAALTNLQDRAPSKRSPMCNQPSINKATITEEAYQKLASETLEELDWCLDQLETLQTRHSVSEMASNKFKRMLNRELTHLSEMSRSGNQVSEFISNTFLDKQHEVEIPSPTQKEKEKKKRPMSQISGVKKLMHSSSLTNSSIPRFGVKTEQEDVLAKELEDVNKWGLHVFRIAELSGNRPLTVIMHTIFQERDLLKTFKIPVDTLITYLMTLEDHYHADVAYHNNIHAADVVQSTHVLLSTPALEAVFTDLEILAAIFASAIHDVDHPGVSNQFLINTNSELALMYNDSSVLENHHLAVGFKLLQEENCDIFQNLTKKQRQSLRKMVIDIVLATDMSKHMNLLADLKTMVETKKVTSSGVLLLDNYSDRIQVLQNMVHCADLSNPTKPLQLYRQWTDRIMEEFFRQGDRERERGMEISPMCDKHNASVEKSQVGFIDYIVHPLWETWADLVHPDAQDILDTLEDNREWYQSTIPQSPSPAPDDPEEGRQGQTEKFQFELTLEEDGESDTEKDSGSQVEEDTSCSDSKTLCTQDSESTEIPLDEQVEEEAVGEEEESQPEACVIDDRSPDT

Chain of PDE4B (Q07343 whole entry): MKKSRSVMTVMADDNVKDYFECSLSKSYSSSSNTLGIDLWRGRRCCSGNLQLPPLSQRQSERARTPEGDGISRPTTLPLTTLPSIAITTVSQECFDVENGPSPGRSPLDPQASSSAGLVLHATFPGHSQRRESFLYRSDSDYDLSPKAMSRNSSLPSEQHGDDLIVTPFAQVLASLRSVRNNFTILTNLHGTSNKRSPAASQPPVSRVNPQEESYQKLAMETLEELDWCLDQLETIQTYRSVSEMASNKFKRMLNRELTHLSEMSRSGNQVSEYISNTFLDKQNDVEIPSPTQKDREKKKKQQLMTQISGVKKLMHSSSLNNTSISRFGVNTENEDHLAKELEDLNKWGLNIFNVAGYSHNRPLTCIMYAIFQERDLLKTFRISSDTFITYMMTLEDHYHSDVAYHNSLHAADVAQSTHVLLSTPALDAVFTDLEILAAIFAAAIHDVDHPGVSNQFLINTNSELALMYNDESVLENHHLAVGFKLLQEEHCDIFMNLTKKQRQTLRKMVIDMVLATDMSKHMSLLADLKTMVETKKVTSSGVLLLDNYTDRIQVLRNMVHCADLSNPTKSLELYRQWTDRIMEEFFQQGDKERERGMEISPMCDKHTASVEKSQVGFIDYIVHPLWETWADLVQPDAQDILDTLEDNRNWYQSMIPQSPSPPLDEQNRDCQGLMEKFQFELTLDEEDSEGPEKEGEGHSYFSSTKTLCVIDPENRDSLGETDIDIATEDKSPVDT

## COc1ccc(Cc2ccc(N(C)C)cc2)c(F)c1-c1cccc(Cl)c1 [P-303, [4-(3′-Chloro-2-fluoro-6-methoxy-biphenyl-3-ylmethyl)-phenyl]-dimethyl-amine]
[1]
  pIC50: > 5.30
[2]
  pIC50: > 5.30

## COc1ccc(CN2CCCC2=O)c(O)c1-c1cccc([N+](=O)[O-])c1 [P-229]
[1]
  pIC50: > 5.30
[2]
  pIC50: > 5.30

## COc1ccc(Cc2ccc(NC(C)=O)cc2)c(F)c1-c1cccc([N+](=O)[O-])c1 [P-107]
[1]
  pIC50: > 5.30
[2]
  pIC50: > 5.30

## CCN1CCN(Cc2ccc(Cc3ccc(OC)c(-c4cccc(Cl)c4)c3F)cn2)C1=O [P-461, 1-[5-(3′-Chloro-2-fluoro-6-methoxy-biphenyl-3-ylmethyl)-pyridin-2-ylmethyl]-3-ethyl-imidazolidin-2-one hydrochloride]
[1]
  pIC50: > 5.30
[2]
  pIC50: > 5.30

## NC(=O)Nc1ccc(Cc2ccc(OC(F)F)c(-c3cccc(Br)c3)c2F)cc1 [P-323]
[1]
  pIC50: > 5.30
[2]
  pIC50: > 5.30

## COc1ccc(Cc2ccc(NC(=O)CCN3CCCCC3)cc2)cc1-c1cccc([N+](=O)[O-])c1 [P-146]
[1]
  pIC50: 4.70 to 5.30
[2]
  pIC50: > 5.30

## COc1ccc(Cc2ccc(F)cc2O)cc1-c1cccc([N+](=O)[O-])c1 [P-119, 5-Fluoro-2-(6-methoxy-3′-nitro-biphenyl-3-ylmethyl)-phenol]
[1]
  pIC50: > 5.30
[2]
  pIC50: > 5.30

## COc1ccc(Cc2ccc(C(C)(C)O)nc2)c(F)c1-c1cccc(Cl)c1 [P-587, 2-[5-(3′-Chloro-2-fluoro-6-methoxy-biphenyl-3-ylmethyl)-pyridin-2-yl]-propan-2-ol hydrochloride]
[1]
  pIC50: > 5.30
[2]
  pIC50: > 5.30

## COc1ccc(Cc2cccnc2Cl)c(O)c1-c1cccc([N+](=O)[O-])c1 [P-109]
[1]
  pIC50: > 5.30
[2]
  pIC50: > 5.30

## COc1ccc(Sc2ccc(NC(N)=O)cc2)cc1-c1cccc(Cl)c1 [P-540, [4-(3′-Chloro-6-methoxy-biphenyl-3-ylsulfanyl)-phenyl]-urea]
[1]
  pIC50: > 5.30
[2]
  pIC50: > 5.30

## COc1ccc(Cc2ccc(C(N)=O)nc2)c(F)c1-c1cccc(Cl)c1 [P-401, 5-(3′-Chloro-2-fluoro-6-methoxy-biphenyl-3-ylmethyl)-pyridine-2-carboxylic acid amide]
[1]
  pIC50: > 5.30
[2]
  pIC50: > 5.30

## COc1ccc(Cc2ccc(CNC(C)=O)c(O)c2)c(F)c1-c1cccc(Cl)c1 [P-302]
[1]
  pIC50: > 5.30
[2]
  pIC50: > 5.30

## Oc1ccc(Cc2ccc(F)cc2)c(F)c1-c1cccc(Br)c1 [P-496]
[1]
  pIC50: > 5.30
[2]
  pIC50: > 5.30

## COc1ccc(CN2CCOC2=O)cc1-c1cccc([N+](=O)[O-])c1 [P-076, 3-(6-Methoxy-3′-nitro-biphenyl-3-ylmethyl)-oxazolidin-2-one]
[1]
  pIC50: > 5.30
[2]
  pIC50: > 5.30

## COc1ccc(Cc2ccc(NC(=O)OC(C)(C)C)cc2)cc1-c1cccc([N+](=O)[O-])c1 [P-112]
[1]
  pIC50: > 5.30
[2]
  pIC50: > 5.30

## COc1ccc(Cc2ccc3cnc(C(N)=O)n3c2)c(F)c1-c1cccc(Cl)c1 [P-445, 6-(3′-chloro-2-fluoro-6-methoxy-biphenyl-3-ylmethyl)-imidazo[1,5-a]pyridine-3-carboxylic acid amide]
[1]
  pIC50: 4.70 to 5.30
[2]
  pIC50: > 5.30

## COc1ccc(Cc2ccc(NC(N)=O)cc2)c(F)c1-c1cccc(Cl)c1 [P-243, [4-(3′-chloro-2-fluoro-6-methoxy-biphenyl-3-ylmethyl)-phenyl]-urea]
[1]
  pIC50: > 5.30
[2]
  pIC50: > 5.30

## O=C1CCCN1Cc1ccc(O)c(-c2cccc([N+](=O)[O-])c2)c1O [P-504, 1-(2,6-Dihydroxy-3′-nitro-biphenyl-3-ylmethyl)-pyrrolidin-2-one]
[1]
  pIC50: 4.70 to 5.30
[2]
  pIC50: > 5.30

## CCNC(=O)Nc1ccc(Cc2ccc(OC)c(-c3cccc(Cl)c3)c2F)cc1 [P-250]
[1]
  pIC50: > 5.30
[2]
  pIC50: > 5.30

## COc1ccc(Cc2ccc(F)cc2)cc1-c1cccc(-c2nnco2)c1 [P-118, 2-[5′-(4-Fluoro-benzyl)-2′-methoxy-biphenyl-3-yl]-[1,3,4]oxadiazole]
[1]
  pIC50: > 5.30
[2]
  pIC50: > 5.30

## COc1ccc(Cc2ccc(NC(N)=O)nc2)c(F)c1-c1cccc(Cl)c1 [P-259]
[1]
  pIC50: > 5.30
[2]
  pIC50: > 5.30

## COc1ccc(Cc2ccc(O)cc2)cc1-c1cccc([N+](=O)[O-])c1 [P-142]
[1]
  pIC50: > 5.30
[2]
  pIC50: > 5.30

## COc1ccc(Cc2ccc(C(N)=O)cc2)cc1-c1cccc(Cl)c1 [P-240, 4-(3′-Chloro-6-methoxy-biphenyl-3-ylmethyl)-benzamide]
[1]
  pIC50: 4.70 to 5.30
[2]
  pIC50: > 5.30

## COc1ccc(CN2CCOC2=O)cc1-c1cccc(C(F)(F)F)c1 [P-083]
[1]
  pIC50: 4.70 to 5.30
[2]
  pIC50: 4.70 to 5.30

## COc1ccc(CN2CCCC2=O)cc1-c1cccc(C(C)=O)c1 [P-172, 1-(3′-Acetyl-6-methoxy-biphenyl-3-ylmethyl)-pyrrolidin-2-one]
[1]
  pIC50: > 5.30
[2]
  pIC50: > 5.30

## NCCOc1ccc(Cc2ccc(NC(N)=O)cc2)cc1-c1cccc(Cl)c1 [P-542, {4-[6-(2-Amino-ethoxy)-3′-chloro-biphenyl-3-ylmethyl]-phenyl}-urea]
[1]
  pIC50: 4.40 to 4.68
[2]
  pIC50: 4.40 to 4.70

## COc1cccc(-c2cc(Cn3cncn3)ccc2OC)c1 [P-086, 1-(6,3′-Dimethoxy-biphenyl-3-ylmethyl)-1H-[1,2,4]triazole]
[1]
  pIC50: 4.70 to 5.30
[2]
  pIC50: > 5.30

## COc1ccc(Cc2ccc(C=O)cc2)c(O)c1-c1cccc([N+](=O)[O-])c1 [P-180, 4-(2-Hydroxy-6-methoxy-3′-nitro-biphenyl-3-ylmethyl)-benzaldehyde]
[1]
  pIC50: > 5.30
[2]
  pIC50: > 5.30

## NC(=O)Nc1ccc(Cc2ccc(O)c(-c3cccc(Cl)c3)c2)cc1 [P-421, [4-(3′-Chloro-6-hydroxy-biphenyl-3-ylmethyl)-phenyl]-urea]
[1]
  pIC50: > 5.30
[2]
  pIC50: > 5.30

## COc1ccc(Cn2ccc3ccccc32)cc1-c1cccc([N+](=O)[O-])c1 [P-010, 1-(6-Methoxy-3′-nitro-biphenyl-3-ylmethyl)-1H-indole]
[1]
  pIC50: > 5.30
[2]
  pIC50: > 5.30

## COc1ccc(COc2ccnc(Cl)c2)c(F)c1-c1cccc(Cl)c1 [P-604]
[1]
  pIC50: > 5.30
[2]
  pIC50: > 5.30

## COc1ccc(Cc2ccc(CNC(N)=O)c(O)c2)c(F)c1-c1cccc(Cl)c1 [P-301]
[1]
  pIC50: > 5.30
[2]
  pIC50: > 5.30

## COc1ccc(Cn2cncn2)cc1-c1ccc2c(c1)OCO2 [P-044, 1-(3-Benzo[1,3]dioxol-5-yl-4-methoxy-benzyl)-1H-[1,2,4]triazole]
[1]
  pIC50: > 5.30
[2]
  pIC50: > 5.30

## COc1ccc(Cn2cncn2)cc1-c1cccc(C(C)=O)c1 [P-082, 1-(2′-Methoxy-5′-[1,2,4]triazol-1-ylmethyl-biphenyl-3-yl)-ethanone]
[1]
  pIC50: 4.70 to 5.30
[2]
  pIC50: > 5.30

## COc1ccc(Cc2cccc(C(N)=O)c2)cc1-c1cccc(Cl)c1 [P-282, 3-(3′-Chloro-6-methoxy-biphenyl-3-ylmethyl)-benzamide]
[1]
  pIC50: 4.70 to 5.30
[2]
  pIC50: > 5.30

## O=c1ccc(Cc2ccc(O)c(-c3cccc([N+](=O)[O-])c3)c2)n[nH]1 [P-488, 6-(6-Hydroxy-3′-nitro-biphenyl-3-ylmethyl)-2H-pyridazin-3-one]
[1]
  pIC50: 4.70 to 5.30
[2]
  pIC50: > 5.30

## COc1ccc(Cc2ccc(-n3cccn3)cc2)c(O)c1-c1cccc([N+](=O)[O-])c1 [P-173, 6-Methoxy-3′-nitro-3-(4-pyrazol-1-yl-benzyl)-biphenyl-2-ol]
[1]
  pIC50: > 5.30
[2]
  pIC50: > 5.30

## COc1ccc(Cn2ccnc2-c2cccnc2)c(F)c1-c1cccc(Cl)c1 [P-549, 3-[1-(3′-Chloro-2-fluoro-6-methoxy-biphenyl-3-ylmethyl)-1H-imidazol-2-yl]-pyridine hydrochloride salt]
[1]
  pIC50: 4.70 to 5.30
[2]
  pIC50: > 5.30

## COc1ccc(Cc2ccc(CN)nc2)c(F)c1-c1cccc(Cl)c1 [P-344, C-[5-(3′-Chloro-2-fluoro-6-methoxy-biphenyl-3-ylmethyl)-pyridin-2-yl]-methylamine]
[1]
  pIC50: > 5.30
[2]
  pIC50: > 5.30

## NC(=O)Nc1ccc(Cc2ccc(OC(F)F)c(-c3cccc(Cl)c3)c2)cc1 [P-420]
[1]
  pIC50: > 5.30
[2]
  pIC50: > 5.30

## COc1ccc(Cc2cccc(O)c2)cc1-c1cccc([N+](=O)[O-])c1 [P-102, 3-(6-Methoxy-3′-nitro-biphenyl-3-ylmethyl)-phenol]
[1]
  pIC50: > 5.30
[2]
  pIC50: > 5.30

## COc1ccc(Cc2ccc3[nH]c(=O)oc3c2)c(F)c1-c1cccc(Cl)c1 [P-263]
[1]
  pIC50: > 5.30
[2]
  pIC50: > 5.30

## COc1ccc(Cc2ccc(N3CCNC3=O)nc2)c(F)c1-c1cccc(Cl)c1 [P-388, 1-[5-(3′-Chloro-2-fluoro-6-methoxy-biphenyl-3-ylmethyl)-pyridin-2-yl]-imidazolidin-2-one]
[1]
  pIC50: > 5.30
[2]
  pIC50: > 5.30

## COc1ccc(Cn2cncn2)cc1-c1cccc(SC)c1 [P-085, 1-(6-Methoxy-3′-methylsulfanyl-biphenyl-3-ylmethyl)-1H-[1,2,4]triazole]
[1]
  pIC50: > 5.30
[2]
  pIC50: > 5.30

## COc1ccc(Cc2ccc(NS(C)(=O)=O)cc2)cc1-c1cccc(Cl)c1 [P-246, N-[4-(3′-Chloro-6-methoxy-biphenyl-3-ylmethyl)-phenyl]-methanesulfonamide]
[1]
  pIC50: > 5.30
[2]
  pIC50: 4.70 to 5.30

## COc1ccc(Cc2ccc(Nc3nccn3C)cc2)cc1-c1cccc(Cl)c1 [P-467, [4-(3′-Chloro-6-methoxy-biphenyl-3-ylmethyl)-phenyl]-(1-methyl-1H-imidazol-2-yl)-amine]
[1]
  pIC50: > 5.30
[2]
  pIC50: > 5.30

## COc1ccc(Cc2ccc(NC(=O)NC3CCCO3)cc2)cc1-c1cccc(Cl)c1 (centres unmarked) [P-566, 1-[4-(3′-Chloro-6-methoxy-biphenyl-3-ylmethyl)-phenyl]-3-(tetrahydro-furan-2-yl)-urea]
[1]
  pIC50: > 5.30
[2]
  pIC50: > 5.30

## CC(C)(O)c1ccc(Cc2ccc(OC(F)F)c(-c3cccc(Cl)c3)c2)cn1 [P-610, 2-[5-(3′-Chloro-6-difluoromethoxy-biphenyl-3-ylmethyl)-pyridin-2-yl]-propan-2-ol hydrochloride]
[1]
  pIC50: > 5.30
[2]
  pIC50: > 5.30

## COc1ccc(Cc2cnc(NC(N)=O)nc2)c(F)c1-c1cccc(C(C)=O)c1 [P-362, [5-(3′-Acetyl-2-fluoro-6-methoxy-biphenyl-3-ylmethyl)-pyrimidin-2-yl]-urea]
[1]
  pIC50: > 5.30
[2]
  pIC50: > 5.30
